Source: the supplement of paper PMC12463676, “Small-molecule dissolution of stress granules by redox modulation benefits ALS models” (Nature Chemical Biology, 2025)

compound: NC(=O)CCCCC1CCSS1 [lipoamide]; test: thermal stability z-score vs DMSO; higher = more thermally stabilized by treatment; settings: HeLa; lipoamide concentration 100 µM; arsenate co-treatment: 1 mM arsenate 1 h
Description: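 Cellular thermal proteome profiling in HeLa cells. Cells were treated with 100 µM lipoamide for 1 h, with or without 1 mM arsenate for a further 1 h, then heated to ten temperatures (37-66.3 °C), and soluble protein was quantified by TMT mass spectrometry relative to 0.1% DMSO controls. The thermal stability score (sum of log2 fold changes minus the abundance score) was transformed to a z-score; mean of n = 3 experiments.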
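Further: each temperature applied for 3 min, abundance score taken as mean log2 fold change at the two lowest temperatures, z-score obtained by mean subtraction and division by SD.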

UniProt O94964, sequence (O94964 whole entry): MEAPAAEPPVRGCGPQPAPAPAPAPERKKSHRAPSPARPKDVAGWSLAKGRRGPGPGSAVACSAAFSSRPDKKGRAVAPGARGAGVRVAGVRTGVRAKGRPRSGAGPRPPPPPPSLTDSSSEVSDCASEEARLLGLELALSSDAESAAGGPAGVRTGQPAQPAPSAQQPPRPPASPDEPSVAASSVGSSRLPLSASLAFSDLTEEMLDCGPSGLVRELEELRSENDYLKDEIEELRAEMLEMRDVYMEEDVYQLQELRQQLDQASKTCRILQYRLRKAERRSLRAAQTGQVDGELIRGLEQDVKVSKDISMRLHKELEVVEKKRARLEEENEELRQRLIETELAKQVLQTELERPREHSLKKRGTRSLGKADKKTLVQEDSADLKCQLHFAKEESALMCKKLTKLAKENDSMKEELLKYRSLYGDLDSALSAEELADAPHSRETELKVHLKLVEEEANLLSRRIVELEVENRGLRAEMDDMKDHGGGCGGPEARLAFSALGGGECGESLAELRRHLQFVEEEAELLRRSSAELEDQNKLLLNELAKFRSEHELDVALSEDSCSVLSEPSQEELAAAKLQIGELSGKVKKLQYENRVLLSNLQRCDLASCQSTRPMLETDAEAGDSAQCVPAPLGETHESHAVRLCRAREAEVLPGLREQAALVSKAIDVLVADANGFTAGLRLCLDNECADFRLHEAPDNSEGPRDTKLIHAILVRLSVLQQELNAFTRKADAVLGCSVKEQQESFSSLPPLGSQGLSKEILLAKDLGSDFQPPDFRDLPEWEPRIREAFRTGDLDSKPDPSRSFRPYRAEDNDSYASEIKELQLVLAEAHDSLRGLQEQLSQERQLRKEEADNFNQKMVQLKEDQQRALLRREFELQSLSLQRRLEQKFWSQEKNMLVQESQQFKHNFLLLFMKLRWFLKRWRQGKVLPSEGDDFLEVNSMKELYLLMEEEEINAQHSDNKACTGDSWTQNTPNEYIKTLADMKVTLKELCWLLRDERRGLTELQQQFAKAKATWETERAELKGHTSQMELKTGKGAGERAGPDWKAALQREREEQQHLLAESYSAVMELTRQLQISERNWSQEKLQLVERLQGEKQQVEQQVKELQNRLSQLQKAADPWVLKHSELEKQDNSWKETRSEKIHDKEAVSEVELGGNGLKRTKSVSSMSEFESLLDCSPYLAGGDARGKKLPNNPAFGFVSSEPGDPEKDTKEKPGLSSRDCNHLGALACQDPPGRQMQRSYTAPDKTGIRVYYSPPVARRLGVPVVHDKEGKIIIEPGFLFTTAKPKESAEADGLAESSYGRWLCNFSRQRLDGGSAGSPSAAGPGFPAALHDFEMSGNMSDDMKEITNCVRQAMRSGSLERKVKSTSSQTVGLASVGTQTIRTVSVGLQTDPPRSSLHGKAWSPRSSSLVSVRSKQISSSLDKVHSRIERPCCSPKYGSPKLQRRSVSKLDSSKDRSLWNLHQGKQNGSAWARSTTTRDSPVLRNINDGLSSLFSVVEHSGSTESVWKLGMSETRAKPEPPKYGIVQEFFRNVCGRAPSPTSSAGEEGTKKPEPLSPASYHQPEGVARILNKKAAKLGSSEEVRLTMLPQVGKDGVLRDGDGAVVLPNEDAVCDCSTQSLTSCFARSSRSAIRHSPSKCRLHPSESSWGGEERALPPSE
UniProt P50851, sequence (P50851 whole entry): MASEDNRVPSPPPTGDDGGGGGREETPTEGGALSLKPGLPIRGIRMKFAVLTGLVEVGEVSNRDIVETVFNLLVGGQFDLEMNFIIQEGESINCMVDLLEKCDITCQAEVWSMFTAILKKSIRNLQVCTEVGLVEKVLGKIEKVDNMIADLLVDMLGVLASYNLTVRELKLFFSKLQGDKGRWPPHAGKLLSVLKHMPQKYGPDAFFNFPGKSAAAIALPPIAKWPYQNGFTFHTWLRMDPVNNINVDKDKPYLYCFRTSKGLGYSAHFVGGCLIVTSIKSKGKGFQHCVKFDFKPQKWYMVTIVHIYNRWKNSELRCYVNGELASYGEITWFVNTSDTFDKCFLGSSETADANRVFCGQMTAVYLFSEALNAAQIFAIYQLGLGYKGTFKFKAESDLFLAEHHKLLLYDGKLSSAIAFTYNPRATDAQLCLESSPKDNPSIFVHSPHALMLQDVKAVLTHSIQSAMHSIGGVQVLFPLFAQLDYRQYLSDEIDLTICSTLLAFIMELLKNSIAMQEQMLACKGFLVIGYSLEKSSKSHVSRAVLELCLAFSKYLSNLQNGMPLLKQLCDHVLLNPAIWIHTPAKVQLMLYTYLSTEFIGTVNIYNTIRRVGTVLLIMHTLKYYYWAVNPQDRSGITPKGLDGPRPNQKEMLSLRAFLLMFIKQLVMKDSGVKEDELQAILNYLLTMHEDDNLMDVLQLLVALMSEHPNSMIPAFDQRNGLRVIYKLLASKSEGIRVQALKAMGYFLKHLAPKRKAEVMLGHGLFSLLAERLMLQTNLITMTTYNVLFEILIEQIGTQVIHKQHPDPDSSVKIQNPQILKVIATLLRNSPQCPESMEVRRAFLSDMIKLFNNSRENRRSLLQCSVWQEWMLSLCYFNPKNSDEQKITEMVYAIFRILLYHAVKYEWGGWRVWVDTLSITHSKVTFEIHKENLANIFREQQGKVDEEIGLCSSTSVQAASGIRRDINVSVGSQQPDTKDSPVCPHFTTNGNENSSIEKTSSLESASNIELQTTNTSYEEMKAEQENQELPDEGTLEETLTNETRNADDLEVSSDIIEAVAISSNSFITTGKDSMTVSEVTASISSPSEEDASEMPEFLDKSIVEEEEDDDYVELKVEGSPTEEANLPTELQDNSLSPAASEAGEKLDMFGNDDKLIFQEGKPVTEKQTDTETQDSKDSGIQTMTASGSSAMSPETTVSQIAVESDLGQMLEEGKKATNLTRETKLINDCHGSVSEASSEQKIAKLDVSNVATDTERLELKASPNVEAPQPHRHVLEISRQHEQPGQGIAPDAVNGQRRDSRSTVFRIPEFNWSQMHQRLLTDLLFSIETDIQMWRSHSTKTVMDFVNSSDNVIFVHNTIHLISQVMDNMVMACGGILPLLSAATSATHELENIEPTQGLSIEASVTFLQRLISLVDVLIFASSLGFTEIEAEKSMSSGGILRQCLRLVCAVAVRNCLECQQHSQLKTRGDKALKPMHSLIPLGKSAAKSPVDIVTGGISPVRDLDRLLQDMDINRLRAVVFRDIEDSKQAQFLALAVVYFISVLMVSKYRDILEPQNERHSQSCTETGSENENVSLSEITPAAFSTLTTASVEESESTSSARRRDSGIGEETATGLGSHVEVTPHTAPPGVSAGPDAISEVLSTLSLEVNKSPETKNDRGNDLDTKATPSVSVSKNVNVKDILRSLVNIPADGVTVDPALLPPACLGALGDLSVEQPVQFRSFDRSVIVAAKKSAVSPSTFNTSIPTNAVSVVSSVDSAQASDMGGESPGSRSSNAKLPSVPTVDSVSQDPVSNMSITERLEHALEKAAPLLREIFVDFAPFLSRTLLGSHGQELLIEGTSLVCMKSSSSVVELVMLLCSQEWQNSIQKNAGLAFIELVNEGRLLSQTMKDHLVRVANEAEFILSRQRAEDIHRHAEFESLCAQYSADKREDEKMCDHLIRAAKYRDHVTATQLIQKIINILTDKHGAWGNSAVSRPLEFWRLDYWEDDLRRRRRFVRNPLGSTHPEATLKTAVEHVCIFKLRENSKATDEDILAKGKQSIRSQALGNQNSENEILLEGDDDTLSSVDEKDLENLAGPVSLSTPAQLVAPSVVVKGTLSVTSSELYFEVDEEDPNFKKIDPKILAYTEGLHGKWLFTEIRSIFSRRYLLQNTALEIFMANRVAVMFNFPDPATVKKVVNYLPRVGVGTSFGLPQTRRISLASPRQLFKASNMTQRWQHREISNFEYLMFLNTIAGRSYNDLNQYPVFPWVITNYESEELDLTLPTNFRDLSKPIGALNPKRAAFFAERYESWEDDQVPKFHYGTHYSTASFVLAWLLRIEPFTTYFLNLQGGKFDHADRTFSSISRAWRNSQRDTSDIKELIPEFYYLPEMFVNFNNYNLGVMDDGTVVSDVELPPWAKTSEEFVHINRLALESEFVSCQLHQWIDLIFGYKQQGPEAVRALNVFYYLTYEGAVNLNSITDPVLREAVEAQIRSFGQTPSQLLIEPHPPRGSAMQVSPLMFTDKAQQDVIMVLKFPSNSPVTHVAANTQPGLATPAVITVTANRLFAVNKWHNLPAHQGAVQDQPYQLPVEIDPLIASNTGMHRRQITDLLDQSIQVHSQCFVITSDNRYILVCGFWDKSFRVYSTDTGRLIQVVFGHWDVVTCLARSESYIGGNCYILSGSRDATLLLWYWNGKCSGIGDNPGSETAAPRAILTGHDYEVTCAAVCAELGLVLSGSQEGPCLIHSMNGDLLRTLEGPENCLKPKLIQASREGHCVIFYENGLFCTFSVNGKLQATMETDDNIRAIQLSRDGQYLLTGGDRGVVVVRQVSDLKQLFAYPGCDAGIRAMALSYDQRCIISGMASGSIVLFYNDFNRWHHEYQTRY
UniProt P43378, sequence (P43378 whole entry): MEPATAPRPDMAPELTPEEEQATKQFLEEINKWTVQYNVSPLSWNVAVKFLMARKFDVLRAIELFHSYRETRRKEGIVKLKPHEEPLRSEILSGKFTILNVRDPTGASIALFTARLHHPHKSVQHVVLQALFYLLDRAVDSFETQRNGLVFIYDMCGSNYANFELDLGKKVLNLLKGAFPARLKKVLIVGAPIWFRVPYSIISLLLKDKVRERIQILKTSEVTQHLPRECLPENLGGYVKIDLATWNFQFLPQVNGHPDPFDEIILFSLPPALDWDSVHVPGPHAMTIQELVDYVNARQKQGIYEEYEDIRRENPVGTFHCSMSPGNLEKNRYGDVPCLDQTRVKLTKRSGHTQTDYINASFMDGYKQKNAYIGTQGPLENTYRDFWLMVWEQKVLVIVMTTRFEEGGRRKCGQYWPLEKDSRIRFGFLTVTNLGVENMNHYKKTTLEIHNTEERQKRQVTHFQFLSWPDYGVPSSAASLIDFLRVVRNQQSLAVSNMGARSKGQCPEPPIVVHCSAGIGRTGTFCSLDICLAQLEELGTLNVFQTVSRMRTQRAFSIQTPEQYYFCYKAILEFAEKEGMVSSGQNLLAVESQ

In order of falling thermal stability z-score:
1. NMRAL1 (UniProt Q9HBL8)  1.43
2. SLC7A5 (UniProt Q01650)  1.39
3. PDCD5 (UniProt O14737)  1.01
4. RPS10 (UniProt P46783)  0.895
5. ENY2 (UniProt Q9NPA8)  0.894
6. AKAP1 (UniProt Q92667)  0.866
7. METTL5 (UniProt Q9NRN9)  0.768
8. NOP56 (UniProt O00567)  0.756
9. NAA20 (UniProt P61599)  0.753
10. QTRT1 (UniProt Q9BXR0)  0.739
11. GOSR1 (UniProt O95249)  0.726
12. RRAS (UniProt P10301)  0.632
13. FOLR1 (UniProt P15328)  0.588
14. COTL1 (UniProt Q14019)  0.575
15. EXOSC2 (UniProt Q13868)  0.567
16. NSDHL (UniProt Q15738)  0.566
17. UBAP2L (UniProt Q14157)  0.549
18. MTO1 (UniProt Q9Y2Z2)  0.544
19. SF3B2 (UniProt Q13435)  0.498
20. TXLNA (UniProt P40222)  0.459
21. UTRN (UniProt P46939)  0.452
22. LCMT1 (UniProt Q9UIC8)  0.437
23. UBL7 (UniProt Q96S82)  0.396
24. APRT (UniProt P07741)  0.387
25. HK1 (UniProt P19367)  0.339
26. GNB4 (UniProt Q9HAV0)  0.329
27. RPL13A (UniProt P40429)  0.328
28. ATRIP (UniProt Q8WXE1)  0.275
29. HGS (UniProt O14964)  0.268
30. LDB1 (UniProt Q86U70)  0.244
31. HNRNPA3 (UniProt P51991)  0.238
32. EIF3L (UniProt Q9Y262)  0.23
33. MYO6 (UniProt Q9UM54)  0.203
34. PDAP1 (UniProt Q13442)  0.179
35. ACAD9 (UniProt Q9H845)  0.127
36. SCARB2 (UniProt Q14108)  0.111
37. APEX2 (UniProt Q9UBZ4)  0.0959
38. RPS6KB2 (UniProt Q9UBS0)  0.0955
39. SPAG1 (UniProt Q07617)  0.0825
40. FH (UniProt P07954)  0.0704
41. TTC39C (UniProt Q8N584)  0.0518
42. SOGA1 (UniProt O94964)  0.0497
43. NOP58 (UniProt Q9Y2X3)  0.0369
44. LRBA (UniProt P50851)  0.015
45. FDPS (UniProt P14324)  -0.000727
46. OVCA2 (UniProt Q8WZ82)  -0.0187
47. PBLD (UniProt P30039)  -0.0252
48. NLN (UniProt Q9BYT8)  -0.0488
49. PTPN9 (UniProt P43378)  -0.0496
50. CAPZB (UniProt P47756)  -0.059
51. TBC1D2 (UniProt Q9BYX2)  -0.151
52. TMEM106B (UniProt Q9NUM4)  -0.167
53. TICAM1 (UniProt Q8IUC6)  -0.187
54. PTGES2 (UniProt Q9H7Z7)  -0.199
55. CHAMP1 (UniProt Q96JM3)  -0.202
56. SERPINB6 (UniProt P35237)  -0.206
57. MAP1S (UniProt Q66K74)  -0.223
58. LGMN (UniProt Q99538)  -0.232
59. SRGN (UniProt P10124)  -0.234
60. PSMC1 (UniProt P62191)  -0.269
61. SMG1 (UniProt Q96Q15)  -0.284
62. FRRS1 (UniProt Q6ZNA5)  -0.316
63. PRRC2B (UniProt Q5JSZ5)  -0.32
64. SYNRG (UniProt Q9UMZ2)  -0.398
65. NASP (UniProt P49321)  -0.412
66. RBM15 (UniProt Q96T37)  -0.454
67. XPR1 (UniProt Q9UBH6)  -0.458
68. C6ORF106 (UniProt Q9H6K1)  -0.69
69. VMP1 (UniProt Q96GC9)  -1.19
70. FKBP8 (UniProt Q14318)  -1.33
71. ACBD5 (UniProt Q5T8D3)  -1.5

same assay, conditions: HeLa; lipoamide concentration 100 µM; arsenate co-treatment: none

In order of rising thermal stability z-score:
1. VMP1 (UniProt Q96GC9)  -1.69
2. QTRT1 (UniProt Q9BXR0)  -1.03
3. FKBP8 (UniProt Q14318)  -0.861
4. ACBD5 (UniProt Q5T8D3)  -0.737
5. XPR1 (UniProt Q9UBH6)  -0.47
6. METTL5 (UniProt Q9NRN9)  -0.318
7. PBLD (UniProt P30039)  -0.218
8. PSMC1 (UniProt P62191)  -0.208
9. TICAM1 (UniProt Q8IUC6)  -0.204
10. FDPS (UniProt P14324)  -0.16
11. SERPINB6 (UniProt P35237)  -0.157
12. FRRS1 (UniProt Q6ZNA5)  -0.157
13. ATRIP (UniProt Q8WXE1)  -0.148
14. PRRC2B (UniProt Q5JSZ5)  -0.119
15. RBM15 (UniProt Q96T37)  -0.0697
16. SOGA1 (UniProt O94964)  -0.0282
17. SRGN (UniProt P10124)  0.0347
18. NSDHL (UniProt Q15738)  0.0586
19. PTPN9 (UniProt P43378)  0.0634
20. TXLNA (UniProt P40222)  0.0728
21. TBC1D2 (UniProt Q9BYX2)  0.0824
22. NASP (UniProt P49321)  0.0851
23. LRBA (UniProt P50851)  0.0915
24. RPS6KB2 (UniProt Q9UBS0)  0.0989
25. RPL13A (UniProt P40429)  0.16
26. TTC39C (UniProt Q8N584)  0.22
27. RRAS (UniProt P10301)  0.351
28. EIF3L (UniProt Q9Y262)  0.373
29. APRT (UniProt P07741)  0.419
30. UBL7 (UniProt Q96S82)  0.433
31. GOSR1 (UniProt O95249)  0.473
32. LCMT1 (UniProt Q9UIC8)  0.614
33. HGS (UniProt O14964)  0.638
34. GNB4 (UniProt Q9HAV0)  0.753
35. SLC7A5 (UniProt Q01650)  1.19
